The source of these data is US20240293380A1, “PROTEASE INHIBITORS AND METHODS OF USE” (priority 2021, published 2024).

The first test deals with SARS-CoV-2. As to the kind of experiment: microbe, parasite or virus in culture. The settings on record: Severe acute respiratory syndrome coronavirus 2, Vero C1008. It is filed as cell-based, SARS-Related Coronavirus 2, Isolate USA-WA1/2020.
By EC50 is commonly meant the midpoint of the concentration-response curve. Low readings indicate greater potency, high ones weaker potency. Regarding `O=C(Cc1cncc2ccccc12)N(Cc1cc(F)cc(Cl)c1)c1ccc(-c2c[nH]cn2)cc1` [Compound 12, N-[(3-chloro-5-fluoro-phenyl)methyl]-N-[4-(1H-imidazol-4-yl)phenyl]-2-(4-isoquinolyl)acetamide], the EC50 was 1140 nM. In other words, the single-digit micromolar range.

For another test, the target named is SARS-CoV-2 3CLpro (Severe acute respiratory syndrome coronavirus 2 (2019-nCoV) (SARS-CoV-2), UniProt P0DTD1).
Assay: not given
Details: not given
It is filed as biochemical.
A word on the IC50: it is the concentration needed to halve the response being measured. In turn, `O=C(Cc1cncc2ccccc12)N(Cc1cc(F)cc(Cl)c1)c1ccc(-c2c[nH]cn2)cc1` [Compound 12, N-[(3-chloro-5-fluoro-phenyl)methyl]-N-[4-(1H-imidazol-4-yl)phenyl]-2-(4-isoquinolyl)acetamide] showed an IC50 of 15 nM. In other words, the double-digit nanomolar range.
Compound `Cc1cncc(CC(=O)N(Cc2cc(F)cc(F)c2)c2ccc(-c3c[nH]cn3)cc2)c1` [Compound 66] yielded an IC50 of 103 nM.
On the same count and under the same terms, the figure for `O=C(Cc1cncc(C2CC2)c1)N(Cc1cc(F)cc(F)c1)c1ccc(-c2c[nH]cn2)cc1` [Compound 67] is 161 nM.
As to `O=C(Cc1cncc2ccccc12)N(Cc1cncc(F)c1)c1ccc(C2=CCNC2)cc1` [Compound 68], it took 608 nM to reach half-maximal inhibition (IC50).
Consider `O=C(Cc1cncc(F)c1)N(Cc1cc(F)cc(Cl)c1)c1ccc(-c2c[nH]cn2)cc1` [Compound 69], for which the concentration for half-maximal inhibition (IC50) stood at 220 nM.
On the same count and under the same terms, the figure for `Cc1cncc(CC(=O)N(Cc2cc(F)cc(Cl)c2)c2ccc(-c3c[nH]cn3)cc2)c1` [Compound 70] is 84 nM; for `O=C(Cc1cncc(C2CC2)c1)N(Cc1cc(F)cc(Cl)c1)c1ccc(-c2c[nH]cn2)cc1` [Compound 71] it is 115 nM.
The compound `O=C(Cc1cncc2ccccc12)N(Cc1cc(F)cc(Cl)c1)c1ccc(C2CNC2)cc1` [Compound 72] gave a half-maximal inhibitory concentration (IC50) of 56 nM.
`O=C(Cc1nncc2ccccc12)N(Cc1cc(F)cc(Cl)c1)c1ccc(-c2c[nH]cn2)cc1` [Compound 73] registered an IC50 of 61 nM.
Still for that read-out and setting: the figure for `NCc1ccc(N(Cc2cc(F)cc(F)c2)C(=O)Cc2cncc3ccccc23)cc1` [Compound 74] is 76 nM; for `O=C(Cc1cnccc1C(F)(F)F)N(Cc1cc(F)cc(Cl)c1)c1ccc(-c2c[nH]cn2)cc1` [Compound 75] it is 1000 nM; for `O=C(Cc1cnccc1Cl)N(Cc1cc(F)cc(Cl)c1)c1ccc(-c2c[nH]cn2)cc1` [Compound 76] it is 311 nM.
`Cc1ccncc1CC(=O)N(Cc1cc(F)cc(Cl)c1)c1ccc(-c2c[nH]cn2)cc1` [Compound 77] came in with an IC50 of 136 nM. Against the preceding compound, the IC50 is about 2.3-fold lower.
On the same count and under the same terms, the figure for `COc1ccncc1CC(=O)N(Cc1cc(F)cc(Cl)c1)c1ccc(-c2c[nH]cn2)cc1` [Compound 78] is 222 nM; for `O=C(Cc1cncc(C2CC2)c1)N(Cc1cc(F)cc(Cl)c1)c1ccc(C2CNC2)cc1` [Compound 79] it is 112 nM; for `Cc1cncc(CC(=O)N(Cc2cc(F)cc(Cl)c2)c2ccc(C3CNC3)cc2)c1` [Compound 80] it is 110 nM.
On the same count and under the same terms, the figure for `O=C(Cc1cncc(F)c1)N(Cc1cncc(F)c1)c1ccc(-c2c[nH]cn2)cc1` [Compound 81] is 1310 nM; for `O=C(Cc1nncc2ccccc12)N(Cc1cc(F)cc(Cl)c1)c1ccc(C2CNC2)cc1` [Compound 82, N-(4-(azetidin-3-yl)phenyl)-N-(3-chloro-5-fluorobenzyl)-2-(phthalazin-1-yl)acetamide] it is 70 nM.
Same read-out and setting: the figure for `O=C(Cc1cncc(F)c1)N(Cc1cncc(F)c1)c1ccc(C2CNC2)cc1` [Compound 83] is 5220 nM.
